Data taken from the NIST ThermoML archive (doi:10.1007/s10765-005-8096-3).

Assay: refractive index (Na D-line) (dimensionless); xn = mol fraction of the nth substance listed
Settings: 101 kPa, Liquid, Standard Abbe refractometry

CCCCc1ccccc1 [butylbenzene] + CCCCOC(C)=O
refractive index
Settings	293.15 K	298.15 K	303.15 K	308.15 K	313.15 K
x2 = 0.049	1.48578	1.48339	1.48091	1.47847	1.47595
x2 = 0.1016	1.48141	1.47885	1.47649	1.47387	1.47154
x2 = 0.1545	1.47686	1.47443	1.47201	1.46946	1.46708
x2 = 0.1989	1.47295	1.47054	1.46814	1.46556	1.46318
x2 = 0.2515	1.46838	1.46596	1.46358	1.461	1.45858
x2 = 0.3023	1.46389	1.46143	1.45905	1.45651	1.45403
x2 = 0.3501	1.45956	1.45713	1.4547	1.45232	1.44977
x2 = 0.3997	1.45505	1.45258	1.45018	1.44769	1.44526
x2 = 0.45	1.45031	1.44787	1.44547	1.44298	1.44055
x2 = 0.4993	1.44563	1.44318	1.44078	1.43832	1.43589
x2 = 0.5496	1.44082	1.43837	1.43591	1.43351	1.43104
x2 = 0.6004	1.43586	1.43342	1.43102	1.42848	1.42602
x2 = 0.6499	1.43099	1.42852	1.42607	1.42354	1.42107
x2 = 0.6998	1.42593	1.42345	1.42099	1.41852	1.41609
x2 = 0.7517	1.4207	1.41819	1.41576	1.41331	1.41084
x2 = 0.801	1.41551	1.41312	1.4106	1.40817	1.40574
x2 = 0.8489	1.41049	1.40806	1.40567	1.40319	1.40078
x2 = 0.8999	1.40499	1.40257	1.40021	1.39782	1.39529
x2 = 0.9493	1.39969	1.39734	1.39484	1.39244	1.39

Cc1cc(C)cc(C)c1 [1,3,5-trimethylbenzene] + CCCCOC(C)=O
refractive index
Settings	293.15 K	298.15 K	303.15 K	308.15 K	313.15 K
x2 = 0.0516	1.49409	1.4916	1.48907	1.48654	1.48399
x2 = 0.1002	1.48903	1.4866	1.48406	1.4816	1.47894
x2 = 0.1506	1.48392	1.48139	1.47885	1.47632	1.47373
x2 = 0.2009	1.4787	1.47618	1.47366	1.47112	1.4686
x2 = 0.2516	1.47339	1.4709	1.46844	1.46589	1.46337
x2 = 0.2995	1.4684	1.46588	1.46345	1.46088	1.45835
x2 = 0.3481	1.46333	1.46081	1.45838	1.4558	1.45332
x2 = 0.3998	1.4579	1.45539	1.45292	1.45039	1.44787
x2 = 0.4499	1.45266	1.45014	1.44772	1.44513	1.44264
x2 = 0.5012	1.44725	1.44474	1.44227	1.43973	1.43728
x2 = 0.5517	1.44194	1.43941	1.43693	1.43441	1.43194
x2 = 0.599	1.43693	1.4344	1.43191	1.42937	1.42693
x2 = 0.6518	1.43134	1.42882	1.42637	1.42379	1.42135
x2 = 0.702	1.42599	1.42348	1.42096	1.41847	1.41604
x2 = 0.7495	1.42089	1.41842	1.41595	1.41342	1.41096
x2 = 0.8007	1.41541	1.41296	1.4105	1.40803	1.40553
x2 = 0.8531	1.40984	1.40738	1.40488	1.40245	1.39998
x2 = 0.8998	1.40482	1.4024	1.39997	1.39751	1.39502
x2 = 0.9494	1.39954	1.3971	1.39467	1.39225	1.38972

CCCCOC(C)=O [butyl ethanoate] + Cc1ccc(C)cc1
refractive index
Settings	293.15 K	298.15 K	303.15 K	308.15 K	313.15 K
x1 = 0.0494	1.49045	1.48779	1.48504	1.48238	1.47977
x1 = 0.1014	1.48487	1.48216	1.4794	1.47685	1.47409
x1 = 0.1494	1.4798	1.4771	1.47436	1.47174	1.46903
x1 = 0.2012	1.47424	1.47153	1.46878	1.46623	1.46356
x1 = 0.248	1.46931	1.46663	1.46387	1.46134	1.45863
x1 = 0.3077	1.46309	1.46041	1.45768	1.45514	1.45247
x1 = 0.3519	1.45847	1.45583	1.45312	1.45058	1.44789
x1 = 0.404	1.45307	1.45044	1.44776	1.44522	1.44259
x1 = 0.4519	1.44815	1.44554	1.44286	1.44032	1.4377
x1 = 0.4999	1.44322	1.44061	1.43796	1.43542	1.43282
x1 = 0.5505	1.43808	1.4355	1.43288	1.43034	1.42775
x1 = 0.5991	1.43317	1.4306	1.42798	1.42546	1.42286
x1 = 0.6518	1.42787	1.42531	1.42272	1.42021	1.41762
x1 = 0.6993	1.42315	1.42063	1.41806	1.41551	1.41295
x1 = 0.749	1.41825	1.41572	1.41319	1.41066	1.40812
x1 = 0.799	1.41333	1.41087	1.40834	1.40581	1.40327
x1 = 0.8519	1.4083	1.40578	1.40327	1.40076	1.39826
x1 = 0.8979	1.40384	1.40137	1.39885	1.39641	1.3939
x1 = 0.9489	1.39894	1.39654	1.39405	1.39155	1.3891
